Results taken from paper PMC7765930, “Antiproliferative Phenanthrenes from Juncus tenuis: Isolation and Diversity-Oriented Semisynthetic Modification” (Molecules, 2020).
Like-named read-outs stand apart in the source and are kept apart here.

Key:
[1] = tested on: T-47D ductal carcinoma cell line; assay: MTT antiproliferative assay, T47D; assay type: cell-based, human; details: 72 h, 100–0.19 μM, read-out: IC50 (µM) ± SD T47D
Experimental: (§1) Breast cancer cell line MCF-7 (ATCC® HTB-22) and the drug-resistant subline of the human breast cancer MCF-7 (ECACC 86012803; KCR) were purchased from LGC Promochem (Teddington, UK). Both cell lines were cultured in Eagle’s Minimal Essential Medium (EMEM, containing 4.5 g/L glucose) supplemented with a non-essential amino acid mixture, a selection of vitamins, and 10% heat-inactivated fetal bovine serum. In every third passage, 0.56 µg/mL doxorubicin was added to the medium, in order to maintain the ABCB1 (P-glycoprotein) expression in KCR cells. A2780 human ovarian cancer cell line (ECACC, European Collection of Authentical Cell Culture, Sigma Cat.no. 93112519) was purchased from Merck KGaA (Darmstadt, Germany). The cisplatin-resistant human ovarian cancer cell line A2780cis (ECACC European Collection of Authentical Cell Culture, Sigma Cat.no. 93112517) was purchased from Merck KGaA (Darmstadt, Germany). The human ovarian cancer cell lines were cultured in RPMI 1640 medium supplemented with 10% heat-inactivated fetal bovine serum. […] HeLa (ATCC® CCL-2™) human cervix carcinoma cell line was purchased from LGC Promochem (Teddington, UK). The cells were cultured in Eagle’s Minimal Essential Medium (EMEM, containing 4.5 g/L glucose) supplemented with a non-essential amino acid mixture, a selection of vitamins, and 10% heat-inactivated fetal bovine serum. MRC-5 human embryonal lung fibroblast cell line (ATCC® CCL-171) was purchased from LGC Promochem, Teddington, UK. The cell line was cultured in Eagle’s Minimal Essential Medium (EMEM, containing 4.5 g/L glucose) supplemented with a non-essential amino acid mixture, a selection of vitamins, and 10% heat-inactivated fetal bovine serum. HTB-26 breast adenocarcinoma cell line was purchased from LGC Promochem, Teddington, UK. The cell line was cultured in RPMI 1640 medium supplemented with 10% heat-inactivated fetal bovine serum. T-47D (ATCC® HTB-133™) ductal carcinoma cell line was purchased from LGC Promochem, Teddington, UK. The cells were cultured in RPMI 1640 medium supplemented with 10% heat-inactivated fetal bovine serum, 2 mM L-glutamine, 1 mM Na-pyruvate, and 100 mM Hepes. All of the cells were incubated at 37 °C, in a 5% CO2 and 95% air atmosphere.
(§2) The antiproliferative effect of the compounds was determined on human breast (MCF-7, KCR, T47D, and HTB-26), cervical (HeLa), and ovarian (A2780 and A2780cis) cancer cells, and on MRC-5 (human embryonic lung fibroblast) cell lines. The adherent cells were cultured in 96-well flat-bottomed microtiter plates, using EMEM supplemented with 10% heat-inactivated fetal bovine serum or RPMI 1640 supplemented with 10% heat-inactivated fetal bovine serum, respectively. The density of the cells was adjusted to 6 × 10^3 cells in 100 μL per well, the cells were seeded for 24 h at 37 °C, with 5% CO2, and then the medium was removed from the plates, and fresh medium (100 μL per well) was added to the cells. The effects of increasing concentrations of compounds on cell proliferation were tested in 96-well flat-bottomed microtiter plates. The compounds were diluted in the appropriate medium; the dilutions of compounds were performed in separate plates and then added to the cells. The starting concentration of the compounds was 100 μM, and two-fold serial dilution was performed (concentration range: 100–0.19 μM). The culture plates were incubated at 37 °C for 72 h; at the end of the incubation period, 20 μL of MTT (thiazolyl blue tetrazolium bromide, Sigma) solution (from a stock solution of 5 mg/mL) was added to each well. After incubation at 37 °C for 4 h, 100 μL of sodium dodecyl sulfate (SDS) (Sigma) solution (10% in 0.01 M HCI) was added to each well, and the plates were further incubated, at 37 °C, overnight. Cell growth was determined by measuring the optical density (OD) at 540/630 nm, with a Multiscan EX ELISA reader (Thermo Labsystems, Cheshire, WA, USA). […]

[2] = tested on: Breast cancer cell line MCF-7; assay: MTT antiproliferative assay, MCF-7; assay type: cell-based, human; details: for IC50: MTT assay, 72 h, 100–0.19 μM, read-out: IC50 (µM) ± SD MCF-7
Experimental: as §1, §2

[3] = tested on: cisplatin-resistant human ovarian cancer cell line A2780cis; assay: MTT antiproliferative assay, A2780cis; assay type: cell-based; details: 72 h, 100–0.19 μM, read-out: IC50 (µM) ± SD A2780cis
Experimental: as §1, §2

[4] = tested on: KCR, drug-resistant subline of the human breast cancer MCF-7; assay: MTT antiproliferative assay, KCR; assay type: cell-based; details: 100–0.19 μM, read-out: IC50 (µM) ± SD KCR
Experimental: as §1, §2

[5] = tested on: HeLa human cervix carcinoma cell line; assay: MTT antiproliferative assay, HeLa; assay type: cell-based; details: 72 h, 100–0.19 μM, read-out: IC50 (µM) ± SD HeLa
Experimental: as §1, §2

[6] = tested on: A2780 human ovarian cancer cell line; assay: MTT antiproliferative assay, A2780; assay type: cell-based; details: 100–0.19 μM, read-out: IC50 (µM) ± SD A2780
Experimental: as §1, §2

[7] = tested on: HTB-26 breast adenocarcinoma cell line; assay: MTT antiproliferative assay, HTB-26; assay type: cell-based, human; details: 100–0.19 μM, read-out: IC50 (µM) ± SD HTB-26
Experimental: as §1, §2

[8] = tested on: HeLa cells; design: method as in PMID 30127296, PMID 31005716; details: previously described, read-out: IC50, antiproliferative activity on HeLa cells; cited from earlier work
[9] = tested on: normal skin fibroblasts CCD966SK; design: method as in PMID 31005716; details: even at higher concentrations; cited from earlier work
[10] = tested on: G2/M and subG1 cell cycle phase; design: method as in PMID 31005716; details: even at lower concentrations; cited from earlier work
[11] = tested on: caspase-3; design: method as in PMID 31005716; details: cited from earlier work
[12] = tested on: tubulin; design: method as in PMID 31005716; details: at 200 µM; cited from earlier work

IC50 [1] [µM] | IC50 [2] [µM] | IC50 [3] [µM] | IC50 ([4]; 72 h) [µM] | IC50 [5] [µM] | IC50 ([6]; 72 h) [µM] | IC50 ([7]; 72 h) [µM] | IC50 ([1]; Homo sapiens, T47D) [µM] | IC50 ([2]; Homo sapiens, MCF7, 72 h) [µM] | IC50 ([3]; Homo sapiens, A2780cis) [µM] | IC50 ([5]; Homo sapiens, HeLa) [µM] | IC50 ([6]; Homo sapiens, A2780, 72 h) [µM] | IC50 ([4]; Homo sapiens, MCF7, 72 h) [µM] | IC50 ([7]; Homo sapiens, HTB26, 72 h) [µM] | SMILES | IC50 [8] [nM] | selectivity against MCF-7 cells over non-tumoral MRC-5 cells ([2]; ratio of IC50 MRC-5 / MCF-7) | toxicity on normal skin fibroblasts CCD966SK [9] | number of cells in the G2/M and subG1 cell cycle phase [10] | caspase-3 activity [11] | tubulin polymerization [12]
14.2 ± 0.6 | 10.2 ± 0.1 | 22.1 ± 1.6 | 29.4 ± 0.9 | 35 ± 1.5 | 22 ± 2 | 20.1 ± 1.1 | – | – | – | – | – | – | – | C=CC1=CC(=O)C=C2CCC3=C(C=CC(=O)C3(C)OCC)C12OCC (stereo not shown) [Compound 4b] | – | – | – | – | – | –
30.3 ± 2.5 | 41 ± 0.9 | 38 ± 4.6 | 44.2 ± 2.6 | 61.9 ± 0.3 | 39.4 ± 3.1 | 45.8 ± 3.2 | – | – | – | – | – | – | – | C=CC1=C(C)C(=O)C=C2CCC3=C(C=CC(=O)C3(C)OCC)C21OCC (stereo not shown) [Compound 2b] | – | – | – | – | – | –
– | – | – | > 100 | – | – | 94.3 ± 2 | 56.3 ± 3.4 | 80.5 ± 3.5 | 62.9 ± 1.7 | 94.7 ± 3.4 | 66 ± 4.4 | – | – | C=CC1=C(C)C(=O)C=C2CCC3=C(C=CC(=O)C3(C)OCC)C21OCC (stereo not shown) [Compound 2a] | – | – | – | – | – | –
– | – | – | – | – | – | – | 24.6 ± 1.9 | 48.6 ± 3.4 | 30.4 ± 0.4 | 2.3 ± 0.7 | 33.1 ± 3.1 | 39.3 ± 1.6 | 57 ± 2.7 | C=Cc1cc(O)cc2c1-c1ccc(O)c(C)c1CC2 [effusol] | 3680 | – | – | – | – | –
– | – | – | – | – | – | – | 7 ± 1 | 5.8 ± 0.2 | 10.9 ± 2.2 | 12.9 ± 0.4 | 8.6 ± 0.5 | 18.9 ± 1.4 | 10.9 ± 0.9 | C=CC1=CC(=O)C=C2CCC3=C(C=CC(=O)C3(C)OC)C12OC (stereo not shown) [Compound 3] | – | ca. 2.1 fold | – | – | – | –
– | – | – | – | – | – | – | 11.6 ± 0.3 | 11.7 ± 0.7 | 22.5 ± 0.2 | 24.4 ± 0.8 | 25.2 ± 1.8 | 23.5 ± 0.8 | 16.1 ± 0.2 | C=CC1=CC(=O)C=C2CCC3=C(C=CC(=O)C3(C)OCC)C12OCC (stereo not shown) [Compound 4a] | – | – | – | – | – | –
– | – | – | – | – | – | – | 36.5 ± 1 | 52.1 ± 4.8 | 88.2 ± 3.1 | > 100 | 80.3 ± 3 | > 100 | 74.3 ± 3.6 | C=CC1=C(C)C(=O)C=C2CCC3=C(C=CC(=O)C3(C)OC)C21OC (stereo not shown) [Compound 1b] | – | – | – | – | – | –
– | – | – | – | – | – | – | 25 ± 0.4 | 37.1 ± 1.1 | 37.1 ± 2.8 | 0.5 | 23.8 ± 1.3 | 35.8 ± 1.7 | 41.7 ± 3.5 | C=Cc1c(C)c(O)cc2c1-c1ccc(O)c(C)c1CC2 [juncusol] | 950 | – | nontoxic | increased | significant and concentration-dependent increase | decreased

SMILES | IC50 [1] [µM] | IC50 [2] [µM] | IC50 [3] [µM] | IC50 ([4]; 72 h) [µM] | IC50 [5] [µM] | IC50 ([6]; 72 h) [µM] | IC50 ([7]; 72 h) [µM] | IC50 ([1]; Homo sapiens, T47D) [µM] | IC50 ([2]; Homo sapiens, MCF7, 72 h) [µM] | IC50 ([3]; Homo sapiens, A2780cis) [µM] | IC50 ([5]; Homo sapiens, HeLa) [µM] | IC50 ([6]; Homo sapiens, A2780, 72 h) [µM] | IC50 ([4]; Homo sapiens, MCF7, 72 h) [µM] | IC50 ([7]; Homo sapiens, HTB26, 72 h) [µM] | IC50 [8] [nM] | selectivity against MCF-7 cells over non-tumoral MRC-5 cells ([2]; ratio of IC50 MRC-5 / MCF-7) | toxicity on normal skin fibroblasts CCD966SK [9] | number of cells in the G2/M and subG1 cell cycle phase [10] | caspase-3 activity [11] | tubulin polymerization [12]
N.N.[Cl][Pt][Cl] [Cisplatin, cisplatin, reference compound] | 5.9 ± 0.1 | 1.4 ± 1.1 | 7.3 ± 0.2 | 6.7 ± 0.4 | 2.3 ± 0.1 | 3.6 ± 0.3 | 20.1 ± 2.3 | – | – | – | – | – | – | – | – | – | – | – | – | –
